Test results taken from paper PMC2854129, “Spadin, a Sortilin-Derived Peptide, Targeting Rodent TREK-1 Channels: A New Concept in the Antidepressant Drug Design” (PLoS Biology, 2010).

Experiments:
mice [1] = experiment: Elevated plus-maze; type: in vivo, mouse; settings: spadin i.p. 10^−5 M or diazepam i.p. 0.5 mg/kg, 30 min before test, vs saline; n = 10
From the text: Elevated plus-maze. The apparatus consisted of two open and two enclosed arms of the same size (45x5 cm) with walls 15 cm high. The arms, constructed of black acrylic, radiate from a common central platform (5x5 cm) to form a plus sign. Open arms were arranged opposite to one another, as were closed arms. The maze was elevated to a height of 45 cm above floor level. Each mouse was placed in the central platform facing one of the open arms. The number of entries into the open and closed arms and the time spent on the open and closed arms were recorded during a 5 min test period. Time spent in the unprotected open arms as well as the number of entries in open arms in relation to the total of arm entries are used as experimental indices of anxiety.

mice [2] = experiment: Light/dark exploration test; type: in vivo, mouse; settings: spadin i.p. 10^−5 M or diazepam i.p. 0.5 mg/kg, 30 min before test, vs saline; n = 10
Description: Light/dark exploration. The apparatus consisted of a cage (25X40X20 cm) divided into two compartments by a black partition containing a small opening that allows mouse to move from one compartment to the other. One compartment, comprising […] of the surface area, was made of white plastic and was brightly illuminated. The adjoining smaller compartment was black and dark. Mice were placed in the white compartment and allowed to move freely between the two chambers for 5 minutes. The number of transitions between the two compartments, time spent in the white chamber, and latency to the first transition were recorded. Mice tend to avoid the white compartment. Thus the measures of exploration in this area (time and entrances) were used as experimental indices of anxiety.

mice [3] = experiment: Staircase test; type: in vivo, mouse; settings: spadin i.p. 10^−5 M or diazepam i.p. 0.5 mg/kg, 30 min before test, vs saline; n = 10
Description: Stair case test. The apparatus comprised an enclosed staircase consisted of five identical steps (2.5 cm in height X 11 cm in width X 7.5 cm in length), each made of black plastic. The height of the walls was constant (12.5 cm above the stairs) along the entire length of the staircase. Each mouse was placed individually on the floor of the staircase with its back to the staircase. A step was considered climbed only if the mouse placed all four paws on it. Rearing was recorded when the mouse rose on its hind legs either on the step or against the wall. The number of steps ascended and the number of rearings made in a 3-min period were recorded. Results were expressed as ratio of rearing/step numbers.

TREK-1 channel = experiment: Whole-cell patch-clamp, hippocampal CA3 pyramidal neurons in brain slices, wild-type mice; type: cell-based, mouse; settings: no aa; spadin n = 8, fluoxetine n = 5; mean ± SEM; unpublished data
TREK-1 [4] = experiment: Whole-cell patch-clamp, cultured hippocampal pyramidal neurons; type: cell-based, mouse
Description: Cortical neurons were prepared from 14 old mouse embryos, whereas hippocampal neurons were prepared from newborn mice. Briefly, dissected brain areas were dissociated and neurons were plated on polylysine-treated 35 or 60 mm dishes and maintained in culture in Neurobasal medium supplemented with B27, Glutamax, and antibiotics for 2 to 3 wk before to be used for electrophysiological or biochemical experiments.
Supplementary file pbio.1000355.s004.tif: Figure S4 Effects of spadin on cultured pyramidal neurons from hippocampus. (A) Cultured pyramidal neuron from hippocampus, with on top, the patch-clamp pipette. Neurons were chosen according to their morphology. (B) Current recorded in response to ramps of potential obtained in the various conditions indicated (aa, arachidonic acid: 10 µM; Spadin: 1 µM; Fluoxetine: 20 µM). Neurons were recorded in the whole-cell configuration of the patch-clamp technique. In voltage-clamp, ramps of potential from −90 mV to 70 mV were applied every 10 s. The % variation of the current amplitude was always measured at −50 mV. The currents were recorded in response to such ramps in control conditions and in the presence of a cocktail of potassium blockers suitable to isolate the TREK currents (10 mM tetraethyl ammonium (TEA), 3 mM 4-aminopyridine (4-AP), 50 nM charybdotoxin, 10 µM glibenclamide, 100 nM apamin). […] The blocks were reversible. (C) Time course of spadin and fluoxetine effects. Applications are indicated by the horizontal bars. (2.03 MB TIF) Click here for additional data file.

mice [5] = experiment: Forced Swimming Test (FST), mice; type: in vivo, mouse
Description: Porsolt forced swim test (FST). Mice (Janvier, France) were placed individually in cylinders (height: 30 cm, diameter: 15 cm) filled with 12 cm deep water (temperature: 22 ±1°C) for 6 min. The total period of immobility was recorded during the last 4 min.

mice [6] = experiment: Tail Suspension Test (TST), mice; type: in vivo, mouse; settings: 4-d fluoxetine 3 mg/kg, vs saline, p>0.05
Description: Tail suspension test (TST). Mice were suspended by the tail. […] The immobility time was recorded during a 6 min test session.

mice [7] = experiment: Novelty Suppressed Feeding test (NSF), mice; type: in vivo, mouse; settings: 4 d; spadin i.v. 10^−6 M, fluoxetine i.p. 3 mg/kg; vs saline
Description: Novelty–suppressed feeding test (NSF). NSF paradigm is a conflict test that elicits competing motivations: the drive to eat and the fear of venturing into the center of a bright arena. Latency to begin eating is used as an index of anxiety- and depression- like behavior. After 4 day treatment (saline or spadin, i.v.) and 24 hours food-deprivation, mice were presented with a food pellet placed in the center of a brightly plastic box (50 x 50 x 20 cm). Latency to begin eating was measured as previously described.

mice [8] = settings: mouse, in vivo, ip
Description: Supplementary file pbio.1000355.s006.tif: Figure S6 Mouse locomotion activity. To determine whether spadin induced a change in locomotor activity, mice (n = 8 per group) were injected with the saline solution or spadin (10^−5M in 100 µl bolus, i.p.) 30 min before starting the test session. Locomotor activity was monitored individually for 24 h using an infrared photobeam activity monitoring system (Imetronic, Pessac, France), which measured consecutive horizontal beam breaks. Testing was in transparent plastic cages (43×2 0×20 cm^3) with fresh bedding in a grid of 8 cm horizontal infrared beams. Locomotor activity was defined as breaking of consecutive photobeams. Mice were given 1 h habituation session before being treated with spadin or saline. Movements were recorded and totalized for each 5 min period during the first hour and then by 10 min time sections for the next 23 h. Six periods were pooled to obtain data for 1 h of time. Different movements were monitored: the coming-and-going between the back and the front of the cage, climbing, and other movements in the back or the front of the cage. Data are the mean value of 8 animals per condition, bars represent SEM. Mice were kept under standard laboratory conditions: 12∶12 light-dark cycle with free access to food and water during the experiment. […] (0.53 MB TIF) Click here for additional data file.

[9] = system: corticosterone (HPA axis); experiment: Stress-induced serum corticosterone levels; type: in vivo, mouse; settings: fluoxetine i.p. 3 mg/kg, 30 min after 10 min tube restraint, vs saline; n = 10
Description: Mice were individually housed for at least 12 h before blood sample collection. Serum samples, collected in the morning, were obtained by retroorbital puncture before and 30 min after the end of a 10 min tube restraint. Levels of corticosterone were measured by radioimmunoassay using a commercially available kit (MP Biomedicals).

[10] = system: BrdU-positive cells in mouse hippocampus; experiment: Hippocampal neurogenesis (BrdU labeling); type: in vivo
Description: Twenty-four hours after the injection of BrdU (120 mg per kg of body weight in a 300 µl bolus), mice were euthanized and transcardially perfused with 4% cold paraformaldehyde. Serial sections of the brains were cut (40 µm) throughout the entire hippocampus on a vibratome (Leica). Every sixth section throughout the hippocampus was processed for BrdU or DCX immunohistochemistry, as previously described. For each immunodetection, slides were first incubated overnight at 4°C with a mouse monoclonal anti-BrdU antibody (1∶200; Becton-Dickinson) or a goat anti-DCX (1∶400; Santa Cruz Laboratories). For chromogenic immunodetection, sections were then incubated for 1 h in biotin-conjugated species-specific secondary antibodies (1∶100; Vector Laboratories) followed by a peroxidase-avidin complex solution according to the manufacturer's protocol. The peroxidase activity of immune complexes was visualized with DAB staining using the VectaStain ABC kit (Vector Laboratories). […] All BrdU-labeled cells in the granular cell layer and SGZ were counted in each section (n = 10 and 5 mice per group) at 400× and 1,000× magnification under a light microscope (Olympus) by an experimenter blinded to the study code. […]

C13NJ cells = experiment: C13NJ wound-healing (cell migration) assay; type: cell-based; settings: 10 nM NT in serum free medium; without spadin, or (spadin line) with 1 µM spadin; unstimulated 4%±1%
From the text: A cell-free zone was created within a semi-confluent monolayer of microglial culture by scratching cells off with a pipette tip. We analyzed by time-lapse microscopy how cells repopulated the cell-free zone, as already described. Supplementary file pbio.1000355.s001.tif: Figure S1 […] wound-healing assay. A cell-free zone was created within a semi-confluent monolayer with a pipette tip. We analyzed by time-lapse microscopy how cells repopulated the cell-free zone. The 100% of migrating cells was calculated by stimulation of cell migration with 10% of Fetal Calf Serum (FCS). (0.13 MB TIF) Click here for additional data file.

TREK-1 [11] = molecular target: T1, TREK-1 (Mus musculus, UniProt P97438); experiment: Competition binding, 125I-spadin, TREK-1 transfected COS-7 cell homogenates; parameters: expressed in transfected cells; host or cells: COS-7 cells, DEAE-dextran transfection; settings: competition, 10^−10 to 10^−5M
T1 sequence (P97438 1-426): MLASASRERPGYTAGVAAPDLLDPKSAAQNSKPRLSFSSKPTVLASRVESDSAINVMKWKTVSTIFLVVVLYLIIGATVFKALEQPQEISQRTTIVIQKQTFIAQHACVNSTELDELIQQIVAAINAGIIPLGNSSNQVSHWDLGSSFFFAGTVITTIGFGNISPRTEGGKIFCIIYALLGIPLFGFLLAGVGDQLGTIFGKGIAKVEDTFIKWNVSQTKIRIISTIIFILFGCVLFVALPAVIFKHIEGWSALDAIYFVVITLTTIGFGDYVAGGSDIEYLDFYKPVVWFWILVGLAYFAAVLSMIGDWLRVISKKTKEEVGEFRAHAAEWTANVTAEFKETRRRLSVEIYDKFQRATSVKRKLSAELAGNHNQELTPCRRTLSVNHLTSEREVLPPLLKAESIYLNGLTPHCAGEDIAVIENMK
Description: For competition experiments, homogenates from TREK-1 transfected COS-7 or C13NJ cells were incubated with 0.2 nM ^125I-spadin or ^125I-NT (200,000 cpm in 250 µl) iodinated and purified as previously described. Incubations were performed in 50 mM Tris-HCl, pH 7.4 containing 0.1% BSA in the presence of increasing concentrations of non-radioactive spadin or NT (10^−10 to 10^−5M). Incubations were terminated by addition of 2 ml of ice-cold binding buffer followed by filtration through cellulose acetate filters (Sartorius, Göttingen, Germany) and washing twice with 2 ml of ice-cold buffer. Radioactivity on filters was counted with a gamma-counter.

CN1C(=O)CN=C(c2ccccc2)c2cc(Cl)ccc21 [diazepam]
time spent in the open arms (mice [1]): significantly reduced the time spent into the aversive open arms | light/dark transitions (mice [2]): significantly induced an increase in the number of light/dark transitions | rearing/step numbers ratio (mice [3]): decrease of the rearing/step numbers ratio

CNCCC(Oc1ccc(C(F)(F)F)cc1)c1ccccc1 (stereo not shown) [fluoxetine]
inhibition of current recorded in presence of potassium blockers, peptide/drug alone (TREK-1 channel): 13.0%±3.8% | block of arachidonic acid-evoked current (TREK-1 [4]; 20 µM fluoxetine, 10 µM aa, at −50 mV): fully blocked | reversibility of block (TREK-1 [4]; spadin 1 µM and fluoxetine 20 µM): reversible | effect of subchronic treatment (mice [5]; 4-d fluoxetine 3 mg/kg, FST, vs saline, p>0.05): no effect | reduction of time of immobility, chronic treatment (mice [5]; 15 d, i.v. once a day, spadin 10^−6 M, fluoxetine 1 mg/kg, vs saline p<0.001, n = 8): around 30% | effect of subchronic treatment (mice [6]): no effect | latency to feed (mice [7]): no effect | locomotor activity (mice [8]): Neither spadin nor fluoxetine had any effect on mouse locomotion | reduction of stress-induced increase in corticosterone levels [9]: 59.1% | number of BrdU-positive cells ([10]; 4-d fluoxetine): no effect on neurogenesis | number of BrdU-positive cells ([10]; 15 d treatment, spadin 10^−5 M or fluoxetine, n = 5): significant increase in the number of BrdU-positive cells

neurotensin [NT]
number of cells that migrated, % of migrating cells in presence of 10% FCS (C13NJ cells): 35.1%±2.3% | displacement of 125I-spadin binding (TREK-1 [11]): unable to displace the binding of ^125I-spadin
